Assay: xn = mol fraction of the nth substance listed
Conditions: 101.3 kPa, Liquid

Cc1ccc(C)cc1 [1,4-dimethylbenzene] + CCCCCCC
Conditions | mass density [kg/m3] | viscosity [mPa·s]
298.15 K, x1 = 0.0948 | 694.32 | 0.4074
298.15 K, x1 = 0.1911 | 709.39 | 0.4176
298.15 K, x1 = 0.288 | 725.04 | 0.4295
298.15 K, x1 = 0.3865 | 741.5 | 0.4436
298.15 K, x1 = 0.4856 | 758.54 | 0.4598
298.15 K, x1 = 0.5861 | 776.51 | 0.4807
298.15 K, x1 = 0.6877 | 795.16 | 0.5047
298.15 K, x1 = 0.7906 | 814.74 | 0.5331
298.15 K, x1 = 0.8949 | 835.24 | 0.5714
298.15 K, x1 = 1 | 856.7 | 0.6162
303.15 K, x1 = 0.0948 | 690.05 | 0.382
303.15 K, x1 = 0.1911 | 705.12 | 0.3912
303.15 K, x1 = 0.288 | 720.75 | 0.4019
303.15 K, x1 = 0.3865 | 737.2 | 0.4154
303.15 K, x1 = 0.4856 | 754.24 | 0.4304
303.15 K, x1 = 0.5861 | 772.19 | 0.4496
303.15 K, x1 = 0.6877 | 790.83 | 0.4716
303.15 K, x1 = 0.7906 | 810.42 | 0.4979
303.15 K, x1 = 0.8949 | 830.91 | 0.5308
303.15 K, x1 = 1 | 852.35 | 0.5715
313.15 K, x1 = 0.0948 | 681.45 | 0.344
313.15 K, x1 = 0.1911 | 696.52 | 0.3523
313.15 K, x1 = 0.288 | 712.12 | 0.3623
313.15 K, x1 = 0.3865 | 728.57 | 0.374
313.15 K, x1 = 0.4856 | 745.57 | 0.3865
313.15 K, x1 = 0.5861 | 763.52 | 0.4034
313.15 K, x1 = 0.6877 | 782.15 | 0.4234
313.15 K, x1 = 0.7906 | 801.71 | 0.444
313.15 K, x1 = 0.8949 | 822.21 | 0.4729
313.15 K, x1 = 1 | 843.64 | 0.508
323.15 K, x1 = 0.0948 | 672.73 | 0.3136
323.15 K, x1 = 0.1911 | 687.79 | 0.3211
323.15 K, x1 = 0.288 | 703.38 | 0.3304
323.15 K, x1 = 0.3865 | 719.83 | 0.3408
323.15 K, x1 = 0.4856 | 736.82 | 0.3529
323.15 K, x1 = 0.5861 | 754.77 | 0.3683
323.15 K, x1 = 0.6877 | 773.41 | 0.3835
323.15 K, x1 = 0.7906 | 792.97 | 0.4041
323.15 K, x1 = 0.8949 | 813.45 | 0.4285
323.15 K, x1 = 1 | 834.9 | 0.4599
333.15 K, x1 = 0.0948 | 663.88 | 0.2848
333.15 K, x1 = 0.1911 | 678.95 | 0.2922
333.15 K, x1 = 0.288 | 694.52 | 0.2997
333.15 K, x1 = 0.3865 | 710.98 | 0.3097
333.15 K, x1 = 0.4856 | 727.97 | 0.3201
333.15 K, x1 = 0.5861 | 745.92 | 0.3345
333.15 K, x1 = 0.6877 | 764.57 | 0.3537
333.15 K, x1 = 0.7906 | 784.15 | 0.3712
333.15 K, x1 = 0.8949 | 804.64 | 0.3973
333.15 K, x1 = 1 | 826.09 | 0.4298
343.15 K, x1 = 0.0948 | 654.83 | 0.2612
343.15 K, x1 = 0.1911 | 669.89 | 0.2658
343.15 K, x1 = 0.288 | 685.48 | 0.273
343.15 K, x1 = 0.3865 | 701.94 | 0.2818
343.15 K, x1 = 0.4856 | 718.94 | 0.2915
343.15 K, x1 = 0.5861 | 736.91 | 0.303
343.15 K, x1 = 0.6877 | 755.57 | 0.3166
343.15 K, x1 = 0.7906 | 775.17 | 0.3317
343.15 K, x1 = 0.8949 | 795.69 | 0.3498
343.15 K, x1 = 1 | 817.17 | 0.3783

Cc1ccc(C)cc1 [1,4-dimethylbenzene] + CCCCCCCC
Conditions | mass density [kg/m3] | viscosity [mPa·s]
298.15 K, x1 = 0.1068 | 712.9 | 0.5185
298.15 K, x1 = 0.2121 | 726.39 | 0.5172
298.15 K, x1 = 0.3156 | 740.39 | 0.5216
298.15 K, x1 = 0.4178 | 755.01 | 0.5273
298.15 K, x1 = 0.5184 | 770.21 | 0.5297
298.15 K, x1 = 0.6174 | 786.05 | 0.5393
298.15 K, x1 = 0.7152 | 802.61 | 0.5515
298.15 K, x1 = 0.8113 | 819.83 | 0.5678
298.15 K, x1 = 0.9065 | 837.91 | 0.5905
298.15 K, x1 = 1 | 856.7 | 0.6162
303.15 K, x1 = 0.1068 | 708.71 | 0.4829
303.15 K, x1 = 0.2121 | 722.17 | 0.4825
303.15 K, x1 = 0.3156 | 736.15 | 0.4833
303.15 K, x1 = 0.4178 | 750.77 | 0.4919
303.15 K, x1 = 0.5184 | 765.93 | 0.493
303.15 K, x1 = 0.6174 | 781.76 | 0.502
303.15 K, x1 = 0.7152 | 798.3 | 0.5139
303.15 K, x1 = 0.8113 | 815.51 | 0.5299
303.15 K, x1 = 0.9065 | 833.52 | 0.5489
303.15 K, x1 = 1 | 852.35 | 0.5715
313.15 K, x1 = 0.1068 | 700.44 | 0.4298
313.15 K, x1 = 0.2121 | 713.85 | 0.4298
313.15 K, x1 = 0.3156 | 727.78 | 0.4331
313.15 K, x1 = 0.4178 | 742.31 | 0.4373
313.15 K, x1 = 0.5184 | 757.45 | 0.4418
313.15 K, x1 = 0.6174 | 773.23 | 0.4483
313.15 K, x1 = 0.7152 | 789.72 | 0.4586
313.15 K, x1 = 0.8113 | 806.89 | 0.4722
313.15 K, x1 = 0.9065 | 824.89 | 0.4895
313.15 K, x1 = 1 | 843.64 | 0.508
323.15 K, x1 = 0.1068 | 692.26 | 0.3877
323.15 K, x1 = 0.2121 | 705.6 | 0.3903
323.15 K, x1 = 0.3156 | 719.47 | 0.3901
323.15 K, x1 = 0.4178 | 733.93 | 0.3952
323.15 K, x1 = 0.5184 | 749.01 | 0.3997
323.15 K, x1 = 0.6174 | 764.73 | 0.4057
323.15 K, x1 = 0.7152 | 781.17 | 0.4143
323.15 K, x1 = 0.8113 | 798.31 | 0.4269
323.15 K, x1 = 0.9065 | 816.2 | 0.4409
323.15 K, x1 = 1 | 834.9 | 0.4599
333.15 K, x1 = 0.1068 | 683.83 | 0.3528
333.15 K, x1 = 0.2121 | 697.15 | 0.3552
333.15 K, x1 = 0.3156 | 710.96 | 0.3571
333.15 K, x1 = 0.4178 | 725.38 | 0.3617
333.15 K, x1 = 0.5184 | 740.41 | 0.3671
333.15 K, x1 = 0.6174 | 756.08 | 0.3753
333.15 K, x1 = 0.7152 | 772.47 | 0.3858
333.15 K, x1 = 0.8113 | 789.52 | 0.3961
333.15 K, x1 = 0.9065 | 807.43 | 0.4138
333.15 K, x1 = 1 | 826.09 | 0.4298
343.15 K, x1 = 0.1068 | 675.29 | 0.3167
343.15 K, x1 = 0.2121 | 688.57 | 0.3164
343.15 K, x1 = 0.3156 | 702.32 | 0.3185
343.15 K, x1 = 0.4178 | 716.69 | 0.3223
343.15 K, x1 = 0.5184 | 731.68 | 0.3271
343.15 K, x1 = 0.6174 | 747.3 | 0.3329
343.15 K, x1 = 0.7152 | 763.64 | 0.341
343.15 K, x1 = 0.8113 | 780.65 | 0.3481
343.15 K, x1 = 0.9065 | 798.53 | 0.3588
343.15 K, x1 = 1 | 817.17 | 0.3783
353.15 K, x1 = 0.1068 | 666.51 | 0.2856
353.15 K, x1 = 0.2121 | 679.75 | 0.2877
353.15 K, x1 = 0.3156 | 693.48 | 0.2897
353.15 K, x1 = 0.4178 | 707.82 | 0.2939
353.15 K, x1 = 0.5184 | 722.78 | 0.2984
353.15 K, x1 = 0.6174 | 738.37 | 0.3016
353.15 K, x1 = 0.7152 | 754.7 | 0.3113
353.15 K, x1 = 0.8113 | 771.7 | 0.3174
353.15 K, x1 = 0.9065 | 789.57 | 0.3264
353.15 K, x1 = 1 | 808.22 | 0.3382

Source: the NIST ThermoML archive (doi:10.1021/je049776w)
